What all share (experiment): NCI-60 cell line screen, 48 h
For assay [1], the system named is U251 CNS.
The test system of assay [2] is HS 578T breast.
The test system of assay [3] is SK-MEL-28 melanoma.
Assay [4] concerns M14 melanoma.
In assay [5] the test system is SK-MEL-5 melanoma.
The test system of assay [6] is HT29 colon.
For assay [7], the system named is T-47D breast.
Assay [8] has as its system SNB-19 CNS.

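All cell lines were grown in 96-well plates and treated with compound for 48 hours. GI50: concentration for 50% inhibition of growth. TGI: concentration producing complete growth inhibition.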

With `CC1(C)N=C(N)N=C(N)N1c1ccc(OCCCCNC(=O)Nc2cccc(S(=O)(=O)F)c2)c(Cl)c1`, the GI50 is 0.674 µM in assay [1]; 19.3 µM in assay [2]; 6.04 µM in assay [3]; 3.96 µM in assay [4]; 1.11 µM in assay [5]; 0.611 µM in assay [6]. Besides, the GI50 in assay [7] was 15.8 µM; in assay [8] it was 2.91 µM. For the same molecule, the TGI in assay [1] is > 100 µM; in assay [2], > 100 µM; in assay [3] it was > 100 µM; in assay [4], > 100 µM; in assay [5], 23.7 µM; in assay [6], > 100 µM. Also, the TGI in assay [7] and in assay [8] was > 100 µM in each case.
With `NCC(Cc1ccccc1)P(=O)(O)O` (centres undefined), the TGI in assay [1], in assay [2], in assay [3], in assay [4], in assay [5] and in assay [6] was > 100 µM throughout. The TGI in assay [7] and in assay [8] was > 100 µM throughout.
For the molecule `CCOC(=O)n1c2ccccc2c(=O)n1CCO`, the TGI in assay [1], in assay [2], in assay [3], in assay [4], in assay [5] and in assay [6] was > 100 µM each time. The TGI in assay [7] and in assay [8] was > 100 µM each time.
Consider `CCN(CCNc1ccc(C)c2sc3cc(Cl)ccc3c(=O)c12)CC(C)(C)O`, for which the GI50 in assay [1] was 4.51 µM; in assay [2] it was 5.01 µM; in assay [3] it was 2.09 µM; in assay [4], 1.95 µM; in assay [5] it was 1.83 µM; in assay [6], 2 µM. Besides, the GI50 was 11.8 µM in assay [7] and 10.1 µM in assay [8]. The TGI in assay [1] worked out at 18.5 µM; in assay [2] it was 21.2 µM; in assay [3], 4.34 µM; in assay [4], 4.01 µM; in assay [5], 3.49 µM; in assay [6] it was 4.86 µM. Besides, the TGI stood at 37.5 µM in assay [7] and 25.8 µM in assay [8].
As to `CN1CC[C@]23c4c5ccc(O)c4OC2c2[nH]ncc2C[C@H]3[C@H]1C5` (some centres undefined), the TGI in assay [1], in assay [2], in assay [3], in assay [4], in assay [5] and in assay [6] was > 100 µM in each case. The TGI in assay [7] and in assay [8] was > 100 µM throughout.
For `O=C(CN(/C=C/C(=O)C(F)(F)F)c1ccccc1)c1ccc(F)cc1`, the GI50 was 22.9 µM in assay [1]; 2.57 µM in assay [2]; 54.8 µM in assay [3]; 1.34 µM in assay [5]; 38.9 µM in assay [6]; 35.3 µM in assay [7]. For the same molecule, the GI50 in assay [8] was 46 µM. The TGI in assay [1] is 69.8 µM; in assay [2], 8.33 µM; in assay [3] it was > 100 µM; in assay [5], 12.3 µM; in assay [6], > 100 µM; in assay [7], > 100 µM. For the same molecule, the TGI in assay [8] is > 100 µM.
On to `O=C(Nc1cccc(-n2cc(-c3ccncc3)c(-c3ccc(O)c(Cl)c3)n2)c1)Nc1ccc(Cl)c(Cl)c1`, for which the GI50 in assay [1] was 1.25 µM; in assay [2], 1.4 µM; in assay [3], 1.8 µM; in assay [4], 1.59 µM; in assay [5] it was 1.56 µM; in assay [6], 3.42 µM. Moreover, the GI50 in assay [7] was 1.84 µM; in assay [8], 3.06 µM. Besides, the TGI was 5.61 µM in assay [1]; 7.1 µM in assay [2]; 6.58 µM in assay [3]; 3.79 µM in assay [4]; 2.99 µM in assay [5]; 39 µM in assay [6]. In addition, the TGI in assay [7] is 6.41 µM; in assay [8] it was > 100 µM.
For `CCc1ccc(C2=NN(c3ccc(S(C)(=O)=O)cc3)C(=O)CC2)cc1`, the GI50 is 1.83 µM in assay [1]; 0.977 µM in assay [2]; 1.59 µM in assay [3]; 0.639 µM in assay [4]; 1.64 µM in assay [5]; 0.411 µM in assay [6]. Further, the GI50 is 4.44 µM in assay [7] and 8.82 µM in assay [8]. In addition, the TGI in assay [1] is > 100 µM; in assay [2], 7.77 µM; in assay [3] it was > 100 µM; in assay [4], > 100 µM; in assay [5], 11.1 µM; in assay [6], 13.4 µM. The TGI in assay [7] was 98.1 µM; in assay [8] it was > 100 µM.
For `COc1ccc(C(=O)/C=C/c2ccc(OCc3ccccc3)c(OC)c2)cc1OC`, the GI50 in assay [1] is 3.51 µM; in assay [2], 2.8 µM; in assay [3] it was 17.3 µM; in assay [4], 5.91 µM; in assay [5] it was 3.61 µM; in assay [6] it was 3.19 µM. Also, the GI50 in assay [7] is 4.33 µM; in assay [8], 5.31 µM. For the same molecule, the TGI is > 100 µM in assay [1]; 71.4 µM in assay [2]; > 100 µM in assay [3]; > 100 µM in assay [4]; 17.2 µM in assay [5]; 89.7 µM in assay [6]. Also, the TGI in assay [7] and in assay [8] was > 100 µM in each case.
On to `Cc1ccc(NC(=O)c2ccc(NC3=C(Cl)C(=O)N(Cc4ccccc4)C3=O)cc2)cc1Cl`, for which the GI50 in assay [1] was 3.97 µM; in assay [2], 10.7 µM; in assay [3], 24.2 µM; in assay [4] it was 17.6 µM; in assay [5], 12 µM; in assay [6], 6.81 µM. Besides, the GI50 in assay [7] was 2.8 µM; in assay [8] it was 60.5 µM. The TGI in assay [1] is 17.8 µM; in assay [2], 34.9 µM; in assay [3] it was > 100 µM; in assay [4], 55.1 µM; in assay [5] it was 24.3 µM; in assay [6], 51.3 µM. For the same molecule, the TGI in assay [7] was 14.5 µM; in assay [8], > 100 µM.

The values above are taken from PubChem BioAssay (NCI).
